These results are taken from patent US6881741B2 (ViroChem Pharma Inc., priority 2001, dated 2005).

What is called IC50 is the concentration that gives 50% inhibition.

The test has as its target recombinant HCV NS5B (HCV RNA-dependent RNA polymerase) (Hepatitis C virus genotype 1b, UniProt P26663). Kind of test: biochemical. As to conditions: related polymerase activity (Example 27 list); read-out: IC50.

Sequence of recombinant HCV NS5B (HCV RNA-dependent RNA polymerase) (P26663 2420-3010 limits assumed): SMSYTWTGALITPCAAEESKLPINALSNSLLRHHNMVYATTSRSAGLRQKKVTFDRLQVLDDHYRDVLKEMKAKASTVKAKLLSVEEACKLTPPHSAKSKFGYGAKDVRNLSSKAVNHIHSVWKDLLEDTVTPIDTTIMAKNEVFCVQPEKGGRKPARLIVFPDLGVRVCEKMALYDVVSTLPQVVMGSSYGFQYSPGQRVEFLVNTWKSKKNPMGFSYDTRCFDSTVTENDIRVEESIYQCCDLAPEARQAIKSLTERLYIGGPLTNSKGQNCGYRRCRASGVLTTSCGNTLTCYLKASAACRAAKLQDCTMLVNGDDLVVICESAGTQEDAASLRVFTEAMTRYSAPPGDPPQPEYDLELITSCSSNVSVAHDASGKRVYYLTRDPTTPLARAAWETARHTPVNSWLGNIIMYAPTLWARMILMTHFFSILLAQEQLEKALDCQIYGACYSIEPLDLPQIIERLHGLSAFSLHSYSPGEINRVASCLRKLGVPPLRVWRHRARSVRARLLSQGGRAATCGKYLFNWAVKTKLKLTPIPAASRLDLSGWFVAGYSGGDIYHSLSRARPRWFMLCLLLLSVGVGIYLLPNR

As to `C=CCN(C(=O)Cc1ccc(Cl)c(Cl)c1)c1cc(-c2ccccc2)sc1C(=O)O` [Compound 350, 3-{ALLYL-[2-(3,4-DICHLORO-PHENYL)- ACETYL]-AMINO}-5-PHENYL-THIOPHENE- 2-CARBOXYLIC ACID], the IC50 fell in the range of 5 to 20 µM.

As for `C=CCN(C(=O)Cc1ccc(F)cc1F)c1cc(-c2ccccc2)sc1C(=O)O` [Compound 351, 3-{ALLYL-[2-(2,4-DIFLUORO-PHENYL)- ACETYL]-AMINO}-5-PHENYL-THIOPHENE- 2-CARBOXYLIC ACID], the concentration for half-maximal inhibition (IC50) is 5 to 20 µM.

As to `C=CCN(C(=O)Cc1ccc(C(F)(F)F)cc1)c1cc(-c2ccccc2)sc1C(=O)O` [Compound 352, 3-{ALLYL-[2-(4-TRIFLUOROMETHYL- PHENYL)-ACETYL]-AMINO}-5-PHENYL- THIOPHENE-2-CARBOXYLIC ACID], the IC50 is above 20 µM.

With `C=CCN(C(=O)Cc1c(Cl)cccc1Cl)c1cc(-c2ccccc2)sc1C(=O)O` [Compound 353, 3-{ALLYL-[2-(2,6-DICHLORO-PHENYL)- ACETYL]-AMINO}-5-PHENYL-THIOPHENE- 2-CARBOXYLIC ACID], the IC50 is 5 to 20 µM.

As to `C=CCN(C(=O)Cc1cccc(C)c1)c1cc(-c2ccccc2)sc1C(=O)O` [Compound 354, 3-[ALLYL-(2-M-TOLYL-ACETYL)-AMINO]-5- PHENYL-THIOPHENE-2-CARBOXYLIC ACID], the IC50 lay within 5 to 20 µM.

In the case of `CC(=O)c1ccc(-c2cc(N(C(=O)c3ccc(Cl)cc3Cl)C(C)C)c(C(=O)O)s2)cc1` [Compound 355, 5-(4-ACETYL-PHENYL)-3-[)2,4-DICHLORO- BENZOYL)-ISOPROPYL-AMINO]- THIOPHENE-2-CARBOXYLIC ACID], the IC50 was below 5 µM.

`CC(C)N(C(=O)c1ccc(Cl)cc1Cl)c1cc(-c2ccc(F)cc2)sc1C(=O)O` [Compound 356, 3-[(2,4-DICHLORO-BENZOYL)- ISOPROPYL-AMINO]-5-(4-FLUORO- PHENYL)-THIOPHENE-2-CARBOXYLIC ACID]: the IC50 is below 5 µM.

With `Cc1cccc(-c2cc(N(C(=O)c3ccc(Cl)cc3Cl)C(C)C)c(C(=O)O)s2)c1` [Compound 357, 3-[(2,4-DICHLORO-BENZOYL)- ISOPROPYL-AMINO]-5-M-TOLYL- THIOPHENE-2-CARBOXYLIC ACID], the IC50 was below 5 µM.

Regarding `CC(=O)c1ccc(-c2cc(N(C(=O)c3ccc(Cl)cc3Cl)C(C)C)c(C(=O)O)s2)s1` [Compound 358, 5′-ACETYL-4-[(2,4-DICHLORO-BENZOYL)- ISOPROPYL-AMINO]-[2,2′]BITHIOPHENYL- 5-CARBOXYLIC ACID], the IC50 is below 5 µM.

With `CC(C)N(C(=O)c1ccc(Cl)cc1Cl)c1cc(-c2cccc(C(F)(F)F)c2)sc1C(=O)O` [Compound 359, 3-[(2,4-DICHLORO-BENZOYL)- ISOPROPYL-AMINO]-5-(3- TRIFLUOROMETHYL-PHENYL)- THIOPHENE-2-CARBOXYLIC ACID], the IC50 is below 5 µM.

Take `COc1ccc(-c2cc(NS(=O)(=O)c3ccc(C)cc3C)c(C(=O)O)s2)cc1` [Compound 361, 3-(2,4-DIMETHYL- BENZENESULFONYLAMINO)-5-(4- METHOXY-PHENYL)-THIOPHENE-2- CARBOXYLIC ACID]: the IC50 is below 5 µM.

Take `CC(C)N(C(=O)C1CCCCC1)c1cc(-c2ccccc2)sc1C(=O)O` [Compound 362, 3-(CYLCOHEXANECARBONYL- ISOPROPYL-AMINO)-5-PHENYL- THIOPHENE-2-CARBOXYLIC ACID]: the IC50 was 5 to 20 µM.

As for `O=C(O)c1sc(-c2ccccc2)cc1N(C(=O)c1ccc(Cl)cc1Cl)C1CCN(C(=O)c2ccc(Cl)cc2Cl)CC1` [Compound 363, 3-[(2,4-DICHLORO-BENZOYL)-[1-(2,4- DICHLORO-BENZOYL)-PIPERIDIN-4-YL]- AMINO)-5-PHENYL-THIOPHENE-2- CARBOXYLIC ACID], the half-maximal inhibitory concentration (IC50) was below 5 µM.

On to `Cc1ccc(C(=O)N(c2cc(-c3ccccc3)sc2C(=O)O)C2CCN(C(=O)OC(C)(C)C)CC2)cc1` [Compound 364, 4-[(2-CARBOXY-5-PHENYL-THIOPHEN-3- YL)-(4-METHYL-BENZOYL)-AMINO]- PIPERIDINE-1-CARBOXYLIC ACID #TERT!-BUTYL ESTER], for which the half-inhibitory concentration (IC50) was below 5 µM.

As for `CC(C)(C)OC(=O)N1CCC(N(C(=O)c2ccc(Cl)cc2Cl)c2cc(-c3ccccc3)sc2C(=O)O)CC1` [Compound 365, 4-[(2-CARBOXY-5-PHENYL-THIOPHEN-3- YL)-(2,4-DICHLORO-BENZOYL)-AMINO]- PIPERIDINE-1-CARBOXYLIC ACID #TERT!-BUTYL ESTER], the IC50 is below 5 µM.

Consider `CC(=O)c1cc(-c2cc(NS(=O)(=O)c3ccc(C)cc3C)c(C(=O)O)s2)cs1` [Compound 367, 5′-ACETYL-4-(2,4-DIMETHYL- BENZENESULFONYLAMINO)- [2,3′]BITHIOPHENYL-5-CARBOXYLIC ACID], for which the half-maximal inhibitory concentration (IC50) is below 5 µM.

As for `Cc1ccccc1S(=O)(=O)Nc1cc(-c2ccc(NS(C)(=O)=O)cc2)sc1C(=O)O` [Compound 369, 5-(4-METHANESULFONYLAMINO- PHENYL)-3- (TOLUENE-2-SULFONYLAMINO)- THIOPHENE- 2-CARBOXYLIC ACID], the IC50 lay in the range of 5 to 20 µM.

As to `Cc1cc(F)ccc1S(=O)(=O)Nc1cc(-c2ccccc2)sc1C(=O)O` [Compound 370, 3-(4-FLUORO-2-METHYL- BENZENESULFONYLAMINO)-5-PHENYL- THIOPHENE-2-CARBOXYLIC ACID], the half-inhibitory concentration (IC50) was 5 to 20 µM.

`CC1CCCC(C(=O)N(c2cc(-c3ccccc3)sc2C(=O)O)C(C)C)C1` (centres unmarked) [Compound 371, 3-[(3-METHYL- CYCLOHEXANECARBOXYL)-ISOPROPYL- AMINO]-5-PHENYL-THIOPHENE-2- CARBOXYLIC ACID]: the IC50 is above 20 µM.

`Cc1cc(Cl)ccc1S(=O)(=O)Nc1cc(-c2ccccc2)sc1C(=O)O` [Compound 372, 3-(4-CHLORO-2-METHYL- BENZENESULFONYLAMINO)-5-PHENYL- THIOPHENE-2-CARBOXYLIC ACID]: the IC50 is below 5 µM.

Turning to `CC(C)N(C(=O)c1ccc(Cl)cc1Cl)c1cc(-c2ccc(S(C)(=O)=O)cc2)sc1C(=O)O` [Compound 373, 3-[(2,4-DICHLORO-BENZOYL)- ISOPROPYL-AMINO]-5-(4- METHANESULFONYL-PHENYL)- THIOPHENE-2-CARBOXYLIC ACID], the IC50 is below 5 µM.

As to `CC(C)N(C(=O)c1ccc(Cl)cc1Cl)c1cc(-c2ccc([S+](C)[O-])cc2)sc1C(=O)O` (centres unmarked) [Compound 374, 3-[(2,4-DICHLORO-BENZOYL)- ISOPROPYL-AMINO]-5-(4- METHANESULFINYL-PHENYL)- THIOPHENE-2-CARBOXYLIC ACID], the IC50 was below 5 µM.

As for `CC(C)N(C(=O)c1ccc(Cl)cc1Cl)c1cc(-c2ccc(C(=O)O)cc2)sc1C(=O)O` [Compound 375, 5-(4-CARBOXY-PHENYL)-3-[(2,4- DICHLORO-BENZOYL)-ISOPROPYL- AMINO]-THIOPHENE-2-CARBOXYLIC ACID], the concentration for half-maximal inhibition (IC50) was below 5 µM.

Take `CC(C)N(C(=O)c1ccc(Cl)cc1Cl)c1cc(-c2cc3ccccc3o2)sc1C(=O)O` [Compound 376, 5-BENZOFURAN-2-YL-3-[(2,4-DICHLORO- BENZOYL)-ISOPROPYL-AMINO]- THIOPHENE-2-CARBOXYLIC ACID]: the 50% inhibitory concentration (IC50) was below 5 µM.

For the compound `CC(=O)Oc1cc(C)ccc1C(=O)N(c1cc(-c2ccccc2)sc1C(=O)O)C(C)C` [Compound 377, 3-[(2-ACETOXY-4-METHYL-BENZOYL)- ISOPROPYL-AMINO]-5-PHENYL- THIOPHENE-2-CARBOXYLIC ACID], the IC50 was in the range of 5 to 20 µM.

In the case of `CC1CCCCC1C(=O)N(c1cc(-c2ccccc2)sc1C(=O)O)C(C)C` (centres unmarked) [Compound 378, 3-[ISOPROPYL-(2-METHYL- CYCLOHEXANECARBONYL)-AMINO]-5- PHENYL-THIOPHENE-2-CARBOXYLIC ACID], the IC50 is 5 to 20 µM.
